This is an account of results in US20200069714A1, “AMINOGLYCOSIDE POTENTIATION FOR TREATMENT OF PULMONARY BACTERIAL INFECTION” (Enbiotix, Inc., priority 2016, published 2020).

Data set [1] relates to tobramycin-sensitive COPD clinical isolates. Description: PSP potentiation assay with COPD clinical isolates. The data set is classed as cell-based, Pseudomonas aeruginosa. To be noted: 15 mM fumarate; early or late stage COPD isolates.
Data set [2] has as its system Human Airway Epithelial cells infected with Pseudomonas. The conditions noted are these: in combination with tobramycin. As to the method:
The impact of fumarate on Human Airway Epithelial cells was tested using an LDH assay. See Moreau-Marquis S, Tobramycin and FDA-Approved Iron Chelators Eliminate Pseudomonas aeruginosa Biofilms on Cystic Fibrosis Cells, Am. J. Respir. Cell Mol. Biol. Vol. 41, 305-313 (2009). LDH levels are measured in the medium (Apical and Basolateral fluids) and inside cells. Cytotoxicity can be expressed as: [LDHAP-BL/(LDHPAP-BL+LDHcells)]×100. […] Results are normalized to PAO1 untreated for 100% cytotoxicity. Significance (*) is between strain plus tobramycin and strain plus tobramycin with potentiator.

For another data set, the system named is PAO1 strain. Briefly: potentiation assay in the presence of tobramycin and azithromycin. The data set is classed as cell-based, Pseudomonas aeruginosa. The conditions noted are these: 15 mM fumarate. Here is the method: (§1) The following examples use an in vitro potentiation assay, termed planktonic stationary phase (PSP) time kill assay. In this assay, bacterial cultures in planktonic stationary phase are used to select for bacterial persisters. Experiments are conducted using the time-kill method (CLSI M26), to evaluate bacterial strains, varying the concentration of aminoglycoside and potentiator. Cultures of persisters are generated by growing the bacteria in lysogeny broth (LB) medium for 16 hours. After 4 hr of exposure to the aminoglycoside plus potentiator combination in M9 minimal medium, cells are enumerated on LB plates.
The potentiation effect was tested in the presence of both tobramycin and azithromycin. […] Results are for PAO1 strain.

Data set [3] deals with naïve bacterial biofilm. Description: 96-well plate biofilm assay. The data set is classed as cell-based. To be noted: 15 mM fumarate, naïve cultures. Here is the method:
(§2) The potentiation effect for tobramycin was tested in two biofilm assays: colony biofilm assay and 96-well plate biofilm assay.

The subject of data set [4] is PAO1 laboratory strains of Pseudomonas aeruginosa. Briefly: planktonic stationary phase (PSP) time kill potentiation assay, laboratory strain. Type of data set: cell-based. Here is the method: as §1
Tobramycin has been measured at about 50 to 90 μg/ml of tobramycin in the lung epithelial lining after delivery of a 300 mg dose of tobramycin to cystic fibrosis patients by nebulizer. Ruddy J. et al., Sputum Tobramvcin Concentrations in Cystic Fibrosis Patients with Repeated Administration of Inhaled Tobramycin, J. of Aerosol Med. and Pulmon. Drug Del. 26(2):69-75 (2013).

The test system of data set [5] is naïve bacterial biofilm. Description: colony biofilm assay. The data set is classed as cell-based. The conditions noted are these: 15 mM fumarate, naïve cultures. Here is the method:
as §2

A short description of data set [6]: potentiation in artificial sputum media. Type of data set: cell-based. To be noted: 15 mM fumarate; with and without amino acids. Here is the method:
In the presence of artificial sputum media with and without amino acids, some tolerance is observed, but the potentiation of tobramycin with 15 mM fumarate remains an improvement of several logs (FIG. 9).

Data set [7] can be described thus: potentiation in the presence of CF patient sputum. Type of data set: cell-based.
Data set [8] deals with P. aeruginosa mucoid and non-mucoid CF clinical isolates. Briefly: colony biofilm assay with CF clinical isolates. Type of data set: cell-based. To be noted: fumarate with tobramycin. As to the method:
as §2

For data set [9] the following is noted: cited from earlier work.

Entries after “also recorded” stand apart in the source; their conditions may differ.

As for `O=C(O)/C=C/C(=O)O` [fumarate], the “potentiation of tobramycin action against COPD strains” value in data set [1] is “effective to potentiate tobramycin action against all COPD strains tested”. Also, in data set [2], the “fumarate concentration with potential to decrease airway inflammation” value is listed as “above 7.5 mM”. In addition, the “potentiation of tobramycin in the presence of azithromycin” value with PAO1 strain is “over 3 logs”. Besides, in the data set on naïve bacterial biofilm [3], the “potentiation of tobramycin in 96-well plate biofilm assay” value is “potentiates tobramycin action; also recorded: shows potentiation of tobramycin”. Further, the “potentiation of tobramycin sensitivity in the persister assay” value in data set [4] (15 mM fumarate, PAO1, 4 hr exposure in M9 minimal medium) was “over 5 logs”. Moreover, the “potentiation of tobramycin in colony biofilm assay” value in the data set with naïve bacterial biofilm [5] is reported as “potentiates tobramycin action; also recorded: shows potentiation of tobramycin”. Besides, the “potentiation of tobramycin in artificial sputum media” value in [6] was “several logs”. Besides, in [7], the “potentiation in the presence of CF sputum” value was determined as 3 logs. Further, in data set [8], the “effect on P. aeruginosa in colony biofilms from CF clinical isolates” value is listed as “eradication of P. aeruginosa”.

For `NC[C@H]1O[C@H](O[C@H]2[C@H](O)[C@@H](O[C@H]3O[C@H](CO)[C@@H](O)[C@H](N)[C@H]3O)[C@H](N)C[C@@H]2N)[C@H](N)C[C@@H]1O` [tobramycin], the “mean tobramycin concentration in expectorated sputum” value in [9] (10 minutes after delivery of 300 mg by nebulizer, CF patients) is given as 1,237 μg/g of sputum. In addition, the “tobramycin concentration in the lung epithelial fluid (induced sputum), estimated” value in [9] (after 300 mg delivered by nebulizer) is around 128 µg/g. In addition, the “tobramycin concentration at which maximum bactericidal activity was observed” value in [4] (with 15 mM fumarate (Met1)) came to 16 µg/mL.
